Here are results for 5 molecules from patent publication US20180360707A1, “COMPOSITION AND METHOD FOR INCREASE OF SURVIVAL AND STABILIZATION OF PROBIOTIC BACTERIA (PB) IN DETERGENT BASED COMPOSITIONS OF PERSONAL HYGIENE AND DOMESTIC PRODUCTS” (UAB "PROBIOSANUS", priority 2015, published 2018).

The assay relates to Bacillus coagulans DSM 2311. Nature of the assay: Analysis of encapsulated and non-capsulated bacteria viability (CFU survival) in detergent solution, cosmetic compound solution or final detergent based product. In kind it is cell-based. As for the experimental part: For all experimental trails probiotic strain of Bacillus coagulans DSM 2311 was used which was obtained from DSMZ. Bacterial cell suspension was prepared by cultivation of B. coagulans cells in 100 mL of liquid nutrient broth medium (Oxoid) in 1000 mL Erlenmeyer flask, for 24 hours at 37° C. while shaking at 180 rmp. Prior to encapsulation the cells were collected by centrifugation at 6000 rpm using Rotofix 32 A Hettich, then washed twice and re-suspended in sterile 0.9% NaCl solution to obtain cell concentration of 10^11 per mL.
1 g of ˜10^10 bacteria-containing lyophilized and rehydrated or fresh microcapsules was added to the fixed volume (100 mL) of either: detergent solution, cosmetic compound containing solution or final formulation detergent based product, and incubated at 37° C. temperature. The samples were harvested at certain timepoints to evaluate bacterial survival. After sample harvest the bacterial capsules were washed twice with sterile water and added to a fixed volume of sterile 2% sodium citrate solution for liberation of encapsulated bacteria. The cell suspension was diluted from 10^1 to 10^5 fold and 100 μL of solution was plated on Petri dishes filled with Nutrient Broth solid medium. The survival rates [%] of capsulated and non-capsulated bacteria was estimated by comparing CFU averages at each sample point, from 3 replicas. See formulas:
[formula] • N—estimated CFU; • CFU—sum of calculated colonies from each evaluated Petri plates • Vp—plated volume • Vfd—final dilution volume • D—dilution fold • Survival of bacteria [%]=N(1+n)/N1*100 • N1—bacterial CFU's from first timepoint sample • N(1+n)—bacterial CFU's from following timepoint sample
1 g of 10^10 bacteria-containing rehydrated or fresh microcapsules was added to the fixed volume (100 mL) of detergent solution and incubated for 120 hours at 37° C. temperature. A parallel experiment was performed with non-capsulated cells (control group). After the sample harvest the bacterial capsules were washed twice with sterile water and added to the fixed volume of sterile 2% sodium citrate solution for liberation of encapsulated bacteria. The cell suspension was diluted 10^1-10^5 fold and 100 μL plated on replicates of Nutrient Broth solid medium. The survival rates [%] of capsulated and non-capsulated bacteria were estimated as described in the section—Analysis of encapsulated bacteria viability in detergent based solution, by comparing CFU averages at each sample time point from 3 replicas.
1 g of 10^10 bacteria containing lyophilized-rehydrated microcapsules was added to the fixed volume (100 mL) of solutions of: Grapefruit seed extract d-limonene, or Azadirachta indica extract and incubated for 120 hours at 37° C. temperature. A parallel experiment was performed with non-capsulated cells. After sample harvest the bacterial capsules were washed twice with sterile water and added to the fixed volume of sterile 2% sodium citrate solution for liberation of encapsulated bacteria. The cell suspension was diluted 10^1-10^5 fold and 100 μL of solution was plated on replicates of Nutrient Broth solid medium. The survival rates [%] of capsulated and non-capsulated bacteria were estimated as described in the section—Analysis of encapsulated bacteria viability in detergent based solution, by comparing CFU averages at each sample point, from 3 replicas. […]

In turn, `CCCCCCCCCCCCOS(=O)(=O)[O-].[Na+]` [SLS, sodium lauryl sulphate] gave a non-capsulated bacteria inactivated (6.7% sodium lauryl sulphate (SLS) solution, 37° C.) of 80%.
Consider cocamide diethanolamine, for which the non-capsulated bacteria inactivated (3% cocamide diethanolamine solution, 37° C.) is given as 75%.
On to `C=C(C)[C@H]1CC=C(C)CC1` [terpenes, d-limonene], for which, under “0.7% terpene d-limonene solution, in 2 hours”, the “non-capsulated B. Coagulans bacteria inactivated” value was found to be 100%.
Regarding cocoamide propyl betaine [CAPB], the “non-capsulated bacteria (starting titers) inactivated” value (cocoamide propyl betaine (CAPB) 6.7% solution, after 0.5 h, 37° C.) was 97%.
cocoglycozide yielded a non-capsulated bacteria inactivated (7% cocoglycozide solution, 37° C.) of 75%.
